Experimental data published in PubChem BioAssay AID1259407 (Chemical Carcinogenesis Research Information System (CCRIS), 2018).
Active and inactive are the calls of the source. How the calls were made is not given here.

System: CCRIS mutagenicity, Ames/micronucleus/aberration tests
Assay: CCRIS mutagenicity studies
[1] = Test System: AMES SALMONELLA TYPHIMURIUM, Strain/Indicator: TA1535, Metabolic Activation: NONE, Method: STANDARD PLATE
[2] = Test System: AMES SALMONELLA TYPHIMURIUM, Strain/Indicator: TA1538, Metabolic Activation: NONE, Method: STANDARD PLATE
[3] = Test System: AMES SALMONELLA TYPHIMURIUM, Strain/Indicator: TA98, Metabolic Activation: NONE, Method: STANDARD PLATE
[4] = Test System: AMES SALMONELLA TYPHIMURIUM, Strain/Indicator: TA98, Metabolic Activation: RAT, LIVER, S-9, AROCLOR 1254, Method: STANDARD PLATE
[5] = Test System: AMES SALMONELLA TYPHIMURIUM, Strain/Indicator: TA100, Metabolic Activation: NONE, Method: STANDARD PLATE
[6] = Test System: AMES SALMONELLA TYPHIMURIUM, Strain/Indicator: TA1537, Metabolic Activation: NONE, Method: STANDARD PLATE
[7] = Test System: AMES SALMONELLA TYPHIMURIUM, Strain/Indicator: TA98, Metabolic Activation: NONE, Method: PREINCUBATION
[8] = Test System: AMES SALMONELLA TYPHIMURIUM, Strain/Indicator: TA98, Metabolic Activation: RAT, LIVER, S-9, AROCLOR 1254, Method: PREINCUBATION
[9] = Test System: AMES SALMONELLA TYPHIMURIUM, Strain/Indicator: TA100, Metabolic Activation: RAT, LIVER, S-9, AROCLOR 1254, Method: PREINCUBATION
[10] = Test System: AMES SALMONELLA TYPHIMURIUM, Strain/Indicator: TA98, Metabolic Activation: RAT, LIVER, S-9, Method: STANDARD PLATE

CC(C)(C)N(Cc1ccccc1)CC(O)c1ccc(O)c(CO)c1 (configuration not stated)
mutagenic call (Test System: AMES SALMONELLA TYPHIMURIUM, Strain/Indicator: TA98(PKM101), Metabolic Activation: NONE, Method: STANDARD PLATE): inactive; negative
mutagenic call (Test System: AMES SALMONELLA TYPHIMURIUM, Strain/Indicator: TA100(PKM101), Metabolic Activation: NONE, Method: STANDARD PLATE): active; positive
mutagenic call [1]: inactive; negative
mutagenic call [2]: inactive; negative

CC(=O)ON(C(C)=O)c1ccc(Oc2ccccc2)cc1
mutagenic call (Test System: AMES SALMONELLA TYPHIMURIUM, Strain/Indicator: TA100, Metabolic Activation: GUINEA PIG, LIVER, S-9, KANECLOR 500, Method: STANDARD PLATE): active; positive

O=[N+]([O-])c1ccc2c3c(c4cccc5ccc1c2c54)CCCC3
mutagenic call [3]: active; positive
mutagenic call [4]: active; positive

c1ccc([C@H]2N[C@H]2c2ccccc2)cc1
mutagenic call [3]: inactive; negative
mutagenic call [5]: active; positive
mutagenic call [6]: inactive; negative

CC(=O)CCC(C)=O
mutagenic call [7]: inactive; negative
mutagenic call [8]: inactive; negative
mutagenic call (Test System: AMES SALMONELLA TYPHIMURIUM, Strain/Indicator: TA100, Metabolic Activation: NONE, Method: PREINCUBATION): inactive; negative
mutagenic call [9]: inactive; negative
mutagenic call (Test System: AMES SALMONELLA TYPHIMURIUM, Strain/Indicator: TA102, Metabolic Activation: NONE, Method: PREINCUBATION): inactive; negative
mutagenic call (Test System: AMES SALMONELLA TYPHIMURIUM, Strain/Indicator: TA102, Metabolic Activation: RAT, LIVER, S-9, AROCLOR 1254, Method: PREINCUBATION): inactive; negative

COP(=O)(SC)SC
mutagenic call (Test System: AMES SALMONELLA TYPHIMURIUM, Strain/Indicator: TA97, Metabolic Activation: NONE, Method: STANDARD PLATE): inactive; negative
mutagenic call (Test System: AMES SALMONELLA TYPHIMURIUM, Strain/Indicator: TA97, Metabolic Activation: RAT, LIVER, S-9, AROCLOR 1254, Method: PREINCUBATION): inactive; negative
mutagenic call (Test System: AMES SALMONELLA TYPHIMURIUM, Strain/Indicator: TA97, Metabolic Activation: RAT, LIVER, S-9, AROCLOR 1254, Method: STANDARD PLATE): inactive; negative
mutagenic call [3]: inactive; negative
mutagenic call [8]: inactive; negative
mutagenic call [4]: inactive; negative
mutagenic call [5]: inactive; negative
mutagenic call [9]: inactive; negative
mutagenic call (Test System: AMES SALMONELLA TYPHIMURIUM, Strain/Indicator: TA100, Metabolic Activation: RAT, LIVER, S-9, AROCLOR 1254, Method: STANDARD PLATE): inactive; negative

c1ccc2c(c1)sc1ccccc12
mutagenic call (Test System: CHINESE HAMSTER OVARY, Strain/Indicator: CHO-K1-BH4 (HGPRT)/6-THIOGUANINE, Metabolic Activation: RAT, LIVER, S-9, AROCLOR (4%)): inactive; negative

[Cl][Pt][Cl].c1cc2c3c(c1)CCCN3CCC2
mutagenic call (Test System: AMES SALMONELLA TYPHIMURIUM, Strain/Indicator: TA92, Metabolic Activation: NONE, Method: STANDARD PLATE): inactive; negative
mutagenic call [3]: inactive; negative
mutagenic call [5]: inactive; negative
mutagenic call (Test System: AMES SALMONELLA TYPHIMURIUM, Strain/Indicator: TA2410, Metabolic Activation: NONE, Method: STANDARD PLATE): inactive; negative
mutagenic call (Test System: E. COLI, Strain/Indicator: TM6, Metabolic Activation: NONE, Method: STANDARD PLATE): inactive; negative
mutagenic call (Test System: E. COLI, Strain/Indicator: TM9, Metabolic Activation: NONE, Method: STANDARD PLATE): active; positive

CCc1c2ccccc2cc2c1c1c(c3ccccc32)O1
mutagenic call [7]: active; positive

CN(C)CCCNc1c2ccccc2nc2ccccc12
mutagenic call (Test System: AMES SALMONELLA TYPHIMURIUM, Strain/Indicator: TA98(1,8-DNP6), Metabolic Activation: NONE, Method: STANDARD PLATE): inactive; negative
mutagenic call (Test System: AMES SALMONELLA TYPHIMURIUM, Strain/Indicator: TA98(1,8-DNP6), Metabolic Activation: RAT, LIVER, S-9, Method: STANDARD PLATE): inactive; negative
mutagenic call (Test System: AMES SALMONELLA TYPHIMURIUM, Strain/Indicator: TA98(NR), Metabolic Activation: NONE, Method: STANDARD PLATE): inactive; negative
mutagenic call (Test System: AMES SALMONELLA TYPHIMURIUM, Strain/Indicator: TA98(NR), Metabolic Activation: RAT, LIVER, S-9, Method: STANDARD PLATE): active; positive
mutagenic call [3]: inactive; negative
mutagenic call [10]: inactive; negative
mutagenic call [5]: inactive; negative
mutagenic call [1]: inactive; negative
mutagenic call [6]: active; positive
mutagenic call (Test System: AMES SALMONELLA TYPHIMURIUM, Strain/Indicator: TA1537 PKM101, Metabolic Activation: NONE, Method: STANDARD PLATE): active; positive
mutagenic call [2]: active; positive
mutagenic call (Test System: CHINESE HAMSTER V-79, Strain/Indicator: V-79/6-THIOGUANINE, Metabolic Activation: NONE, Method: STANDARD PLATE): inactive; negative
mutagenic call (Test System: CHINESE HAMSTER V-79, Strain/Indicator: V-79/OUABAIN, Metabolic Activation: NONE, Method: STANDARD PLATE): inactive; negative
mutagenic call (Test System: Escherichia coli, Strain/Indicator: CC107 (G6 to G7 frameshifts), Metabolic Activation: None, Method: Modified preincubation): active; positive
mutagenic call (Test System: Escherichia coli, Strain/Indicator: CC108 (G6 to G5 frameshifts), Metabolic Activation: None, Method: Modified preincubation): active; positive
mutagenic call (Test System: Escherichia coli, Strain/Indicator: CC109 (CG5 to CG4 frameshifts), Metabolic Activation: None, Method: Modified preincubation): active; positive
mutagenic call (Test System: Escherichia coli, Strain/Indicator: CC111 (A7 to A6 frameshifts), Metabolic Activation: None, Method: Modified preincubation): active; positive

Cc1c2c(c(C)c3ccccc13)[C@H]1O[C@H]1c1ccccc1-2
mutagenic call [7]: active; positive

CC(C)=C(Cl)C=O
mutagenic call (Test System: AMES SALMONELLA TYPHIMURIUM, Strain/Indicator: TA98, Metabolic Activation: NONE, Method: PREINCUBATION, LIQUID INCUBATION): inactive; negative
mutagenic call (Test System: AMES SALMONELLA TYPHIMURIUM, Strain/Indicator: TA100, Metabolic Activation: NONE, Method: LIQUID INCUBATION): active; positive
mutagenic call (Test System: AMES SALMONELLA TYPHIMURIUM, Strain/Indicator: TA100, Metabolic Activation: NONE, Method: PREINCUBATION, LIQUID INCUBATION): active; positive
mutagenic call (Test System: AMES SALMONELLA TYPHIMURIUM, Strain/Indicator: TA1538, Metabolic Activation: NONE, Method: PREINCUBATION, LIQUID INCUBATION): inactive; negative

O=C(O)c1cc2c(c3c1c([N+](=O)[O-])cc1ccccc13)OCO2
mutagenic call [10]: inactive; negative
mutagenic call [5]: active; positive
mutagenic call (Test System: AMES SALMONELLA TYPHIMURIUM, Strain/Indicator: TA100, Metabolic Activation: RAT, LIVER, CYTOSOL, Method: STANDARD PLATE): active; positive
mutagenic call (Test System: AMES SALMONELLA TYPHIMURIUM, Strain/Indicator: TA100, Metabolic Activation: RAT, LIVER, MICROSOMES, Method: STANDARD PLATE): active; positive
mutagenic call (Test System: AMES SALMONELLA TYPHIMURIUM, Strain/Indicator: TA100, Metabolic Activation: RAT, LIVER, S-9, 3-METHYLCHOLANTHRENE, Method: STANDARD PLATE): active; positive
mutagenic call [6]: active; positive
mutagenic call (Test System: AMES SALMONELLA TYPHIMURIUM, Strain/Indicator: YG1020, Metabolic Activation: NONE, Method: STANDARD PLATE): active; positive
mutagenic call (Test System: AMES SALMONELLA TYPHIMURIUM, Strain/Indicator: YG1021, Metabolic Activation: NONE, Method: STANDARD PLATE): active; positive
mutagenic call (Test System: AMES SALMONELLA TYPHIMURIUM, Strain/Indicator: YG1024, Metabolic Activation: NONE, Method: STANDARD PLATE): active; positive
mutagenic call (Test System: AMES SALMONELLA TYPHIMURIUM, Strain/Indicator: YG1025, Metabolic Activation: NONE, Method: STANDARD PLATE): active; positive
mutagenic call (Test System: AMES SALMONELLA TYPHIMURIUM, Strain/Indicator: YG1026, Metabolic Activation: NONE, Method: STANDARD PLATE): active; positive
mutagenic call (Test System: AMES SALMONELLA TYPHIMURIUM, Strain/Indicator: YG1029, Metabolic Activation: NONE, Method: STANDARD PLATE): active; positive
